In ChEMBL document CHEMBL5212743, “Selectivity Literature for EUbOPEN Chemogenomics Library wave 3” (2023):
Each block holds one compound with its values, some of them ahead of it.

Experiments:
[1] = target: Rho-associated protein kinase 1 (Homo sapiens) (UniProt Q13464); test: Selectivity interaction (KinomeScan (DiscoverX)) EUB0000698a ROCK1; conditions: at 10 µM
[2] = target: T1, Dual specificity mitogen-activated protein kinase kinase 5 (Homo sapiens) (UniProt Q13163); test: Selectivity interaction (KinomeScan (DiscoverX)) EUB0000698a MAP2K5; conditions: at 10 µM
T1 sequence (whole entry): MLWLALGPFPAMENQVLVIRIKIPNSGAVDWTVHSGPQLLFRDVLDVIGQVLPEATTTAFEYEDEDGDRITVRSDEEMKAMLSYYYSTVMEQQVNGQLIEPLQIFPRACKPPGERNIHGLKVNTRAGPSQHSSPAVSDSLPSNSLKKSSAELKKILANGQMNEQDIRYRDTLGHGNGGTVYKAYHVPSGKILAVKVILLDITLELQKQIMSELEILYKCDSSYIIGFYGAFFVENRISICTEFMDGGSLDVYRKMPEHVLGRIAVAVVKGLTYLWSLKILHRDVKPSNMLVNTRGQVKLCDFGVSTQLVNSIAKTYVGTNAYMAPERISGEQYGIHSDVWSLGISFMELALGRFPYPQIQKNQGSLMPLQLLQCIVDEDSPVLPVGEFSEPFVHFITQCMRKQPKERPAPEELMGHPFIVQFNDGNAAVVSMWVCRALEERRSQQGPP

[3] = target: Serine/threonine-protein kinase RIO3 (Homo sapiens) (UniProt O14730); test: Selectivity interaction (KinomeScan (DiscoverX)) EUB0000698a RIOK3; conditions: at 10 µM
[4] = target: T2, Cyclin-G-associated kinase (Homo sapiens) (UniProt O14976); test: Selectivity interaction (KinomeScan (DiscoverX)) EUB0000698a GAK; conditions: at 10 µM
T2 sequence (whole entry): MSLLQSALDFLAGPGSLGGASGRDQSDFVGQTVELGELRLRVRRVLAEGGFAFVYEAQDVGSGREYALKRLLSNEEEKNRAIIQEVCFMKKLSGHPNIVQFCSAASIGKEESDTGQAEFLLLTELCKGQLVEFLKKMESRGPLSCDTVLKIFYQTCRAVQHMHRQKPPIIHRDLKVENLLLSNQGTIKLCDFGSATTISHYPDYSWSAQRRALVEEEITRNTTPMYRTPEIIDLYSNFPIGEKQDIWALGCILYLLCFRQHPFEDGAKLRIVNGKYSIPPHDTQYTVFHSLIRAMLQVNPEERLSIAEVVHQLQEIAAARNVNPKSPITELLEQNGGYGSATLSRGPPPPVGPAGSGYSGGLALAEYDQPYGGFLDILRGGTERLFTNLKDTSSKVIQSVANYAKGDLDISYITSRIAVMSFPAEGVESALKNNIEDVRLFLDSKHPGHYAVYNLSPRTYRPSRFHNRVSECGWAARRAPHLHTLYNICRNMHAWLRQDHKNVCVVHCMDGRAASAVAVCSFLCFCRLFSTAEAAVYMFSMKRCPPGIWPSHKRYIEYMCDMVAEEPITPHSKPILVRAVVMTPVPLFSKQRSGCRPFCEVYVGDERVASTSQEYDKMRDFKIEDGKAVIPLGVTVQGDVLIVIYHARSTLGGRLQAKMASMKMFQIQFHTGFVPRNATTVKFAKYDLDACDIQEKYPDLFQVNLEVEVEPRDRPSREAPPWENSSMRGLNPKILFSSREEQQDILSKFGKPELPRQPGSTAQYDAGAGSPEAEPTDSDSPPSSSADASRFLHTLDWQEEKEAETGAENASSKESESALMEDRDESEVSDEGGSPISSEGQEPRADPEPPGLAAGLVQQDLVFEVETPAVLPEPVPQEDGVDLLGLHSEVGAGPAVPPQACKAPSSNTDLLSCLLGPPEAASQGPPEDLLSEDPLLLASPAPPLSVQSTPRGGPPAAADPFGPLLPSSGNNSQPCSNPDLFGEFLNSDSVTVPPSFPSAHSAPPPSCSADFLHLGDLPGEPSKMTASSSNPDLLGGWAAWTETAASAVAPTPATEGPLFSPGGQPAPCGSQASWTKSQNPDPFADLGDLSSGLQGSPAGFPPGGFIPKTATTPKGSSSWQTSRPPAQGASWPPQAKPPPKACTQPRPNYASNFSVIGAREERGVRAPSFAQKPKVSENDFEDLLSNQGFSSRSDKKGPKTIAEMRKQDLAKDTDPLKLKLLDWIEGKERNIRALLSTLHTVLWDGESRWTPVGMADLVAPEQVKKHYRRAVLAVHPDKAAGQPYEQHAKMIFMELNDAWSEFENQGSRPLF

[5] = target: Serine/threonine-protein kinase RIO1 (Homo sapiens) (UniProt Q9BRS2); test: Selectivity interaction (KinomeScan (DiscoverX)) EUB0000698a RIOK1; conditions: at 10 µM
[6] = target: Serine/threonine-protein kinase PLK2 (Homo sapiens) (UniProt Q9NYY3); test: Selectivity interaction (KinomeScan (DiscoverX)) EUB0000169b PLK2; conditions: at 1 µM
[7] = target: T3, Serine/threonine-protein kinase Sgk1 (Homo sapiens) (UniProt O00141); test: Selectivity interaction (Kinase panel (University of Dundee)) EUB0000169b SGK1; conditions: at 10 µM
T3 sequence (whole entry): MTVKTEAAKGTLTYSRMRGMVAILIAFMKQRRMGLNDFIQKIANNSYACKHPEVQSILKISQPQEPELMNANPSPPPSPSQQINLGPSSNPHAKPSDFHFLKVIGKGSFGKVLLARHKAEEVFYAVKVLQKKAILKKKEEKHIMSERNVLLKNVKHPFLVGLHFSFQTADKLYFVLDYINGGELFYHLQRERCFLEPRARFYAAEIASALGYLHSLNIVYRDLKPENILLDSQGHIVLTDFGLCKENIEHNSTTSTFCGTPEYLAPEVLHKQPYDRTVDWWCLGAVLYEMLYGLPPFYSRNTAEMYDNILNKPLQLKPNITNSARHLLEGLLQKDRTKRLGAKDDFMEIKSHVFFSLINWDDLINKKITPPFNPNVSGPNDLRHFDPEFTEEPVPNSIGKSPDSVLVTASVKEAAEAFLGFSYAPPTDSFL

[8] = target: Casein kinase II subunit alpha (Homo sapiens, UniProt P68400); test: Selectivity interaction (Kinase panel (University of Dundee)) EUB0000169b CSNK2A1; conditions: at 10 µM
[9] = target: Mitogen-activated protein kinase kinase kinase 1 (Homo sapiens) (UniProt Q13233); test: Selectivity interaction (KinomeScan (DiscoverX)) EUB0000702a MAP3K1; conditions: at 1 µM
[10] = target: Epithelial discoidin domain-containing receptor 1 (Homo sapiens, UniProt Q08345); conditions: at 1 µM
[11] = target: Muscle, skeletal receptor tyrosine-protein kinase (Homo sapiens) (UniProt O15146); conditions: at 1 µM
[12] = target: Macrophage colony-stimulating factor 1 receptor (Homo sapiens) (UniProt P07333); conditions: at 1 µM
[13] = target: Dual specificity protein kinase TTK (Homo sapiens) (UniProt P33981); test: Selectivity interaction (KinomeScan (DiscoverX)) EUB0000138c TTK; conditions: at 100 nM

Serine/threonine-protein kinase PLK2 (Homo sapiens), sequence (Q9NYY3 whole entry, looked up): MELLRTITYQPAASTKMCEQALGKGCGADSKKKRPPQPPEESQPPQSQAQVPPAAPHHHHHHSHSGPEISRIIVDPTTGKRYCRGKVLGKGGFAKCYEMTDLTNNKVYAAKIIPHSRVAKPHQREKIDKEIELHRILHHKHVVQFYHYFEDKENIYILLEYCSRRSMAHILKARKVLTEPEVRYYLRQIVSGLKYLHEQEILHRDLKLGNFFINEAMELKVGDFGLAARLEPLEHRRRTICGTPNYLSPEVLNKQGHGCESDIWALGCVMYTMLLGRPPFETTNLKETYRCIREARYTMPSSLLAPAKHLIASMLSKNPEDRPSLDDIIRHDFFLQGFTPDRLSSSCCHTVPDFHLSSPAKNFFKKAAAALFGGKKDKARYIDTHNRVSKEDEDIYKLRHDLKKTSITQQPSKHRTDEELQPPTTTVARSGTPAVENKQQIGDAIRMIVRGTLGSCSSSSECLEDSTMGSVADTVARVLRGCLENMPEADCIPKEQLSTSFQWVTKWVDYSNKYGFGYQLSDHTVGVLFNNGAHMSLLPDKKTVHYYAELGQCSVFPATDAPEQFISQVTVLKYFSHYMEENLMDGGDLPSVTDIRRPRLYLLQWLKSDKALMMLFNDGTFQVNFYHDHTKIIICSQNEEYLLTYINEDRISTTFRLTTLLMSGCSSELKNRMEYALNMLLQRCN
Casein kinase II subunit alpha, sequence (P68400 whole entry, looked up): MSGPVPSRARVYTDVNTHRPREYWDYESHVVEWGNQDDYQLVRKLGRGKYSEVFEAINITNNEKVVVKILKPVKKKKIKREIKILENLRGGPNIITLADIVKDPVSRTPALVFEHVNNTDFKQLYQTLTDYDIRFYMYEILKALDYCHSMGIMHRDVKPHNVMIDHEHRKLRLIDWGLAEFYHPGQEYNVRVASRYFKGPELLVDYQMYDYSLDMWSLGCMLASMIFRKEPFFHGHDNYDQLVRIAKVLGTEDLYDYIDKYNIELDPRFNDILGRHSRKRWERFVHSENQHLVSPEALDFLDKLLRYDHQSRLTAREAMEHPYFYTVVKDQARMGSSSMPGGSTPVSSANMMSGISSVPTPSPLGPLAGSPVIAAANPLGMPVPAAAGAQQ
Epithelial discoidin domain-containing receptor 1, sequence (Q08345 whole entry, the tested form may be a part): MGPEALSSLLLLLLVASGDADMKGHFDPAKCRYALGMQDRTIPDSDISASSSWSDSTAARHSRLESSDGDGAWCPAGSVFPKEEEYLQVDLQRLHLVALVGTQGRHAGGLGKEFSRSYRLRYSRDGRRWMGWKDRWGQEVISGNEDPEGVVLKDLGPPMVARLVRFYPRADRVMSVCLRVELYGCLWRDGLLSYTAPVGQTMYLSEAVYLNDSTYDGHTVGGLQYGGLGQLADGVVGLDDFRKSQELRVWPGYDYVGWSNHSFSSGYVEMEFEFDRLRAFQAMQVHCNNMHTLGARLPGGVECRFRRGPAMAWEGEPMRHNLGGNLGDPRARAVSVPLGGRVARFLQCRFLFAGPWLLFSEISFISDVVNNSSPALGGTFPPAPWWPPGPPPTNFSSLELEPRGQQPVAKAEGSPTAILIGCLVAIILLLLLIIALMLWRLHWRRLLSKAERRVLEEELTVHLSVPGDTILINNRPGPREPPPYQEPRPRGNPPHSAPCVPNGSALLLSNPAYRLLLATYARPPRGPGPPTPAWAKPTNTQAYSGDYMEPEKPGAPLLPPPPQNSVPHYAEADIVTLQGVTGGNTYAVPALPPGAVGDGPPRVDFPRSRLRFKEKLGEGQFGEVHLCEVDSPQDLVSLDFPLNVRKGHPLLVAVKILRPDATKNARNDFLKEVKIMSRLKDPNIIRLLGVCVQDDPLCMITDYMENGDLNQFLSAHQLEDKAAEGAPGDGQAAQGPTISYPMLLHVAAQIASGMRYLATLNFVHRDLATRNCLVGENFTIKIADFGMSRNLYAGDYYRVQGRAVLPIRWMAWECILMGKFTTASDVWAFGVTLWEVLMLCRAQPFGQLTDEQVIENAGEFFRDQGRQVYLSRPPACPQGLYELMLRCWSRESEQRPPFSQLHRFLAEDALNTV
Serine/threonine-protein kinase RIO3 (Homo sapiens), sequence (O14730 whole entry): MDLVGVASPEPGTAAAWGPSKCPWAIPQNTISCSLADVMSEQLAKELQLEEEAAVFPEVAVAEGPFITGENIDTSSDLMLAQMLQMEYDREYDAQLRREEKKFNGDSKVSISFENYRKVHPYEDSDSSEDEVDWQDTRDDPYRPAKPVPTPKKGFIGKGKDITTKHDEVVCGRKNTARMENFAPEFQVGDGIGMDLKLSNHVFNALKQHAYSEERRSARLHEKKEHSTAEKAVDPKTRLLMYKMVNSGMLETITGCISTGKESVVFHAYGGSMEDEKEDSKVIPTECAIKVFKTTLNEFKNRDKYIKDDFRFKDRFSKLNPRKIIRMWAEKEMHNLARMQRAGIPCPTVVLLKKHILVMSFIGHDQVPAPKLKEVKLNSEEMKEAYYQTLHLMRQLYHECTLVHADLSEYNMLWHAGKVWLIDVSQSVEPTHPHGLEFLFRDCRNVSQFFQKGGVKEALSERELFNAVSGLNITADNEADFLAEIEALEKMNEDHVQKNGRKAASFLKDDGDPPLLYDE
Rho-associated protein kinase 1 (Homo sapiens), sequence (Q13464 2-1354 limits assumed): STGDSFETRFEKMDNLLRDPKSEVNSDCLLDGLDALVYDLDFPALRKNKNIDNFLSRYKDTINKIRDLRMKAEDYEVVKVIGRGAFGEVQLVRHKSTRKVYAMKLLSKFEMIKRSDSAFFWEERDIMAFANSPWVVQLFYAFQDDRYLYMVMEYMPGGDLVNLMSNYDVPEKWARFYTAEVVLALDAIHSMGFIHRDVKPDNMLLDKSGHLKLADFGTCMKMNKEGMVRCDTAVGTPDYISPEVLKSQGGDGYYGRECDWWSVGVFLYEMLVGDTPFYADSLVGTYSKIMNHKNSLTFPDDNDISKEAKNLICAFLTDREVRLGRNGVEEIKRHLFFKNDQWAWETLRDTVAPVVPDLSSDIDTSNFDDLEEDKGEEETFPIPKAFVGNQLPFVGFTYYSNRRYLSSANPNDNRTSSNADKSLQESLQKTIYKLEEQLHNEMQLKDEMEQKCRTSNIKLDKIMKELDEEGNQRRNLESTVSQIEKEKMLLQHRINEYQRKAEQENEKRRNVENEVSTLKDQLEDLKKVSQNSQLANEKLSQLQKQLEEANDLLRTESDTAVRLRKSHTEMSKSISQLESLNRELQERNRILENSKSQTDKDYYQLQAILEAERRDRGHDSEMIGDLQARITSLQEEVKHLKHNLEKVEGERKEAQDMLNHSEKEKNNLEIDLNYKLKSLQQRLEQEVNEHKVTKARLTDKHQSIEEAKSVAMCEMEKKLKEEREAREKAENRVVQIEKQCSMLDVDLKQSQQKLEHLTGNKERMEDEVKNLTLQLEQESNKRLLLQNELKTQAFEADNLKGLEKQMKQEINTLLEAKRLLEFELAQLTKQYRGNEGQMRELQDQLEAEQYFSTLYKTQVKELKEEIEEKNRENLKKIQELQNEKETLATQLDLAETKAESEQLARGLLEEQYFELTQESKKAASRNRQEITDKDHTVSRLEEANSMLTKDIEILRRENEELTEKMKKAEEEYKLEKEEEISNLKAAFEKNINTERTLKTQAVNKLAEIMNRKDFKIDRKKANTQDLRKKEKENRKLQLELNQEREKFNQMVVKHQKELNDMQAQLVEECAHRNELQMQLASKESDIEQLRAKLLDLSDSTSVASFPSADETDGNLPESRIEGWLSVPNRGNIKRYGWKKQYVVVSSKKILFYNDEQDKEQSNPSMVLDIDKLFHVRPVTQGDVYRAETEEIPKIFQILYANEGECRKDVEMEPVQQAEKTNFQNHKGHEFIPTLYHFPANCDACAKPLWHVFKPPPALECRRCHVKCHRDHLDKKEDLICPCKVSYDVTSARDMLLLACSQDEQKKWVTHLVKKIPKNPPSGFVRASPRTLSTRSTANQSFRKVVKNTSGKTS
Serine/threonine-protein kinase RIO1 (Homo sapiens), sequence (Q9BRS2 whole entry): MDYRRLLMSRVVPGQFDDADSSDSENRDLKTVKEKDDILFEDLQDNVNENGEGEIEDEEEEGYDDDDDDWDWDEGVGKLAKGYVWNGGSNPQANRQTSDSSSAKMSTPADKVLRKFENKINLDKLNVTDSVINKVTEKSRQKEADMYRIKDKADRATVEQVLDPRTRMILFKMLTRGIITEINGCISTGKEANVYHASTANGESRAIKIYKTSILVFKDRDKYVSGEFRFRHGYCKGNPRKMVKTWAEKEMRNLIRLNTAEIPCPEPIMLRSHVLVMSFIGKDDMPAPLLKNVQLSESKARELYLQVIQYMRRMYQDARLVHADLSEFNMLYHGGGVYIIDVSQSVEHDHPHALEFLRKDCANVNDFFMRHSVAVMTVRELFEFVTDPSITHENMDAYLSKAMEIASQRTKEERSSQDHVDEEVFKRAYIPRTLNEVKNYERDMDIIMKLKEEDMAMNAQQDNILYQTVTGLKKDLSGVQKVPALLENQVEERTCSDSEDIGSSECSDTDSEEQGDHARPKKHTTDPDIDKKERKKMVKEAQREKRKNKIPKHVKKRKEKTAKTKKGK

% of control [1]: 4.7% | % of control [2]: 0.5% | % of control [3]: 4.2% | % of control [4]: 4.1% | % of control [5]: 4.1%
SMILES: COc1cc2ncn(-c3cc(OCc4ccccc4C(F)(F)F)c(C(N)=O)s3)c2cc1OC [GW843682X]

% of control [9]: 0%
SMILES: CN(c1ccnc(CNc2nc(Nc3ccc4c(c3)CC(=O)N4)ncc2C(F)(F)F)n1)S(C)(=O)=O [PF-00911705]

The remaining lines, values behind:

SMILES: CC[C@@H]1C(=O)N(C)c2cnc(Nc3ccc(C(=O)NC4CCN(C)CC4)cc3OC)nc2N1C1CCCC1
% of control [6]: 1.2% | % of control [7]: 80% | % of control [8]: 103%

SMILES: CCOc1cn(-c2ccc(F)cc2C)nc1C(=O)Nc1ccc(Oc2ccnc3cc(OC)c(OC)cc23)c(F)c1
% of control [10]: < 10% | % of control [11]: < 10% | % of control [12]: < 10%

SMILES: CNC(=O)c1ccc(Nc2ncc(C(F)(F)F)c(NCc3nccnc3N(C)S(C)(=O)=O)n2)cc1 [DEFACTINIB]
% of control [13]: 8.3%
